{"source": "paper PMC6304418", "about": "“A Novel Compound Targeting Protease Receptor 1 Activators for the Treatment of Glioblastoma” (Frontiers in Neurology, 2018)", "key": {"[1]": {"test_system": "thrombin mediated PAR1 activation (pERK/ERK) in CNS-1 cells", "test": "ERK activation (pERK/ERK, Western blot) in CNS-1 cells", "assay_type": "cell-based, rat", "conditions": "thrombin 1 U/ml, 10 min, FCS-free; n = 3; control 1 ± 0.07; p < 0.03 vs. control", "description": "Cells were seeded (1 × 10^6 cells/75 cm^2 flask) and incubated for 24 h. Then the medium was replaced by FCS-free medium for another 24 h. The cells were treated for 10 min with thrombin (1 U/ml), SIXAC (100 nM), a combination of thrombin and SIXAC or a FCS-free medium which was used as a control (n = 3 for each treatment). The cells were washed and lysed in RIPA buffer (containing in mM: 50 TRIS HCl pH 8, 150 NaCl, 1% NP-40, 0.5% sodium deoxycholate, and 0.1% SDS), a protease inhibitor cocktail (Merck Millipore 539134, 1:100), 0.1 mM sodium orthovanadate and 2 mM PMSF. The cells were scraped, collected and centrifuged (16,000g × 20 min) at 4°C. The supernatants were collected, and protein concentration was determined by means of a bicinchoninic acid (BCA) assay. Each sample (20 μg) was separated by SDS-polyacrylamide gel electrophoresis. The proteins were transferred onto nitrocellulose membranes. Membranes were incubated with mouse anti-phosphorylated Extracellular signal-Regulated Kinase (pERK) antibody (1:10,000, M8159, Sigma), for 1.5 h at room temperature (RT) and washed with Tris-buffered saline and 0.1% Tween 20 (TBST). Membranes were then incubated at RT with horseradish peroxidase-conjugated goat anti-mouse antibody (1:10,000, Jackson Immunoresearch Laboratories). […] Protein bands were detected by a peroxidase-based enhanced chemiluminescence (ECL) method. […]"}, "PAR1": {"test_system": "PAR1", "conditions": "use limited; ref [34] Gao et al., 2015; cited from earlier work", "text": "Numerous findings support the involvement of the thrombin-PAR1 pathway in glioma pathology ([8], [13], [18]). We have previously found a positive correlation between edema size and PAR1 expression in an animal model of GBM ([19]). […] In addition to the direct thrombin-PAR1 effects on glioma cells, PARs play a crucial role in the control of angiogenesis and vascular permeability by regulating the release of endostatin and vascular endothelial growth fac ..."}, "U87 glioma cells": {"test_system": "U87 glioma cells", "test": "U87 glioma cell proliferation (XTT)", "assay_type": "cell-based, human", "conditions": "72 h", "description": "CNS-1, C6, and U87 rat and human glioma cells were grown in Dulbecco's modified Eagle's medium (DMEM; Bet Haemek, Biological Industries, Israel) supplemented with 10% fetal bovine serum (Bet Haemek, Biological Industries, Israel) and 1% penicillin and streptomycin in a 5% CO2-humidified atmosphere.\nCell proliferation was evaluated using a 2.3-Bis-(2-methoxy-4-nitro-5-sulfophenyl)-2H-tetrazolium-5-carboxyanilide salt (XTT)-based cell proliferation assay kit (Bet Haemek, Biological Industries, Israel). U87 cells were seeded in 96-well plates (5 × 10^3 cells/well) and incubated for 24 h. The medium was then removed, the tested molecules (10^−13-10^−4 M final concentration) were added in FCS-free medium and introduced to the cells for 72 h. After choosing SIXAC as the leading molecule, it was tested in a similar way in CNS-1 cells (SIXAC 1 μM final concentration). XTT solution (50 μl) was added to each well and incubated for 3 h at 37°C. The optical density (OD) of each well was recorded at 450 and 630 nm in a microplate reader (Infinite M200, Tecan, Durham, NC, USA). Cell viability was expressed as the percentage (ODtest–ODblank)/(ODcontrol–ODblank), where ODtest is the optical density of cells exposed to SIXAC treatment, ODcontrol is the optical density of the control sample, and ODblank is the optical density of wells without glioma cells."}}, "note": "Where a SMILES comes first, the peptide text is derived from it. The star is where a group is joined. Tos = Cc1ccc(S(=O)(=O)*)cc1; CH2Cl = ClC*"}
{"compound": "thrombin", "values": [{"measurement": "pERK/ERK ratio, thrombin alone", "setting": "[1]", "value": "2.09 ± 0.28"}]}
{"compound": "CCOC(=O)N[C@@H]1CC[C@@H]2[C@@H](C1)C[C@H]1C(=O)O[C@H](C)[C@H]1[C@H]2/C=C/c1ccc(-c2cccc(F)c2)cn1", "note": "[Vorapaxar]", "values": [{"measurement": "bleeding side-effects", "setting": "PAR1", "value": "limited due to bleeding side-effects"}]}
{"compound": "Cc1ccc(S(=O)(=O)N[C@@H](CC(=O)O)C(=O)N2CCC[C@H]2C(=O)N[C@@H](CCCNC(=N)N)C(=O)CCl)cc1", "note": "[3AACK] (Tos-Asp-Pro-Arg-CH2Cl)", "values": [{"measurement": "U87 proliferation rate (\"inhibit proliferation at a rate of\")", "setting": "U87 glioma cells; 10^−5M, FCS-free medium, mean ± SEM, 3AACK vs. 6AACK p < 0.035", "value": "0.58 ± 0.046"}, {"measurement": "U87 proliferation inhibition, compared with 6AACK", "setting": "U87 glioma cells; 10^−8M, p = 0.7", "value": "inhibits more efficiently the proliferation rate when compared to 6AACK at a concentration of 10^−8M, this was found to be non-significant"}]}
